Data as given in PubChem BioAssay (NCI).
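Exposure lasted 48 hours, with cells grown in 96-well plates and compounds tested at five concentrations. TGI denotes the concentration required for complete inhibition of growth.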

How the values were obtained:
Experiment in all cases: NCI anticancer screen, dose series, 48 h
SW-620 colon = test system: SW-620 colon
U251 CNS = test system: U251 CNS
HT29 colon = test system: HT29 colon
MCF7 breast = test system: MCF7 breast
786-0 renal = test system: 786-0 renal
MDA-MB-231 breast = test system: MDA-MB-231 breast
MALME-3M melanoma = test system: MALME-3M melanoma
OVCAR-8 ovarian = test system: OVCAR-8 ovarian
SK-OV-3 ovarian = test system: SK-OV-3 ovarian
OVCAR-5 ovarian = test system: OVCAR-5 ovarian
A549 NSCLC = test system: A549 NSCLC
EKVX NSCLC = test system: EKVX NSCLC
NCI-H23 lung = test system: NCI-H23 lung
SNB-19 CNS = test system: SNB-19 CNS
HL-60(TB) leukemia = test system: HL-60(TB) leukemia
CAKI-1 renal = test system: CAKI-1 renal
RXF 393 renal = test system: RXF 393 renal
SR leukemia = test system: SR leukemia
UACC-257 melanoma = test system: UACC-257 melanoma
UO-31 renal = test system: UO-31 renal
MDA-N = test system: MDA-N
SNB-75 CNS = test system: SNB-75 CNS
OVCAR-3 ovarian = test system: OVCAR-3 ovarian
M14 melanoma = test system: M14 melanoma
NCI/ADR-RES ovarian = test system: NCI/ADR-RES ovarian
LOX IMVI melanoma = test system: LOX IMVI melanoma
RPMI-8226 leukemia = test system: RPMI-8226 leukemia
ACHN renal = test system: ACHN renal
MOLT-4 leukemia = test system: MOLT-4 leukemia
HOP-92 NSCLC = test system: HOP-92 NSCLC
TK-10 renal = test system: TK-10 renal
A498 renal = test system: A498 renal
SF-295 CNS = test system: SF-295 CNS
SK-MEL-28 melanoma = test system: SK-MEL-28 melanoma
NCI-H226 lung = test system: NCI-H226 lung
KM12 colon = test system: KM12 colon
NCI-H460 lung = test system: NCI-H460 lung
K-562 leukemia = test system: K-562 leukemia
DU-145 prostate = test system: DU-145 prostate
OVCAR-4 ovarian = test system: OVCAR-4 ovarian
COLO 205 colon = test system: COLO 205 colon
T-47D breast = test system: T-47D breast
HCT-15 colon = test system: HCT-15 colon
MDA-MB-435 = test system: MDA-MB-435
UACC-62 melanoma = test system: UACC-62 melanoma
HOP-62 NSCLC = test system: HOP-62 NSCLC
HCT-116 colon = test system: HCT-116 colon
HCC-2998 colon = test system: HCC-2998 colon
SN12C renal = test system: SN12C renal
SK-MEL-2 melanoma = test system: SK-MEL-2 melanoma
BT-549 breast = test system: BT-549 breast
NCI-H522 lung = test system: NCI-H522 lung
SF-268 CNS = test system: SF-268 CNS
SK-MEL-5 melanoma = test system: SK-MEL-5 melanoma
PC-3 prostate = test system: PC-3 prostate
IGROV1 ovarian = test system: IGROV1 ovarian
CCRF-CEM leukemia = test system: CCRF-CEM leukemia
SF-539 CNS = test system: SF-539 CNS

## Cc1ccc([N+](=O)[O-])cc1S(=O)(=O)Nc1ccc(C2=NN(S(=O)(=O)c3cc([N+](=O)[O-])ccc3C)C(c3ccccc3O)C2)cc1 (configuration not stated)
SW-620 colon
  TGI: > 100 µM
U251 CNS
  TGI: > 100 µM
HT29 colon
  TGI: > 100 µM
MCF7 breast
  TGI: > 100 µM
786-0 renal
  TGI: > 100 µM
MDA-MB-231 breast
  TGI: > 100 µM
MALME-3M melanoma
  TGI: > 100 µM
OVCAR-8 ovarian
  TGI: > 100 µM
SK-OV-3 ovarian
  TGI: > 100 µM
OVCAR-5 ovarian
  TGI: > 100 µM
A549 NSCLC
  TGI: > 100 µM
EKVX NSCLC
  TGI: > 100 µM
NCI-H23 lung
  TGI: > 100 µM
SNB-19 CNS
  TGI: > 100 µM
HL-60(TB) leukemia
  TGI: > 100 µM
CAKI-1 renal
  TGI: > 100 µM
RXF 393 renal
  TGI: > 100 µM
SR leukemia
  TGI: > 100 µM
UACC-257 melanoma
  TGI: > 100 µM
UO-31 renal
  TGI: > 100 µM
MDA-N
  TGI: > 100 µM
SNB-75 CNS
  TGI: > 100 µM
OVCAR-3 ovarian
  TGI: > 100 µM
M14 melanoma
  TGI: > 100 µM
NCI/ADR-RES ovarian
  TGI: > 100 µM
LOX IMVI melanoma
  TGI: > 100 µM
RPMI-8226 leukemia
  TGI: > 100 µM
ACHN renal
  TGI: > 100 µM
MOLT-4 leukemia
  TGI: > 100 µM
HOP-92 NSCLC
  TGI: > 100 µM
TK-10 renal
  TGI: > 100 µM
A498 renal
  TGI: 83.9 µM
SF-295 CNS
  TGI: > 100 µM
SK-MEL-28 melanoma
  TGI: > 100 µM
NCI-H226 lung
  TGI: > 100 µM
KM12 colon
  TGI: > 100 µM
NCI-H460 lung
  TGI: > 100 µM
K-562 leukemia
  TGI: > 100 µM
DU-145 prostate
  TGI: > 100 µM
OVCAR-4 ovarian
  TGI: > 100 µM
COLO 205 colon
  TGI: > 100 µM
T-47D breast
  TGI: > 100 µM
HCT-15 colon
  TGI: > 100 µM
MDA-MB-435
  TGI: > 100 µM
UACC-62 melanoma
  TGI: > 100 µM
HOP-62 NSCLC
  TGI: > 100 µM
HCT-116 colon
  TGI: > 100 µM
HCC-2998 colon
  TGI: > 100 µM
SN12C renal
  TGI: > 100 µM
SK-MEL-2 melanoma
  TGI: > 100 µM
BT-549 breast
  TGI: > 100 µM
NCI-H522 lung
  TGI: > 100 µM
SF-268 CNS
  TGI: > 100 µM
SK-MEL-5 melanoma
  TGI: > 100 µM
PC-3 prostate
  TGI: > 100 µM
IGROV1 ovarian
  TGI: > 100 µM
CCRF-CEM leukemia
  TGI: > 100 µM

## CN(CCNC(=O)c1nn(C)c2c1Cc1ccccc1-2)CCNC(=O)c1nn(C)c2c1Cc1ccccc1-2
SW-620 colon
  TGI: 38.9 µM
U251 CNS
  TGI: 28.9 µM
HT29 colon
  TGI: 33.5 µM
MCF7 breast
  TGI: 26 µM
786-0 renal
  TGI: 27.7 µM
MDA-MB-231 breast
  TGI: 38.1 µM
MALME-3M melanoma
  TGI: 29.8 µM
OVCAR-8 ovarian
  TGI: 42.2 µM
SF-539 CNS
  TGI: 27.6 µM
SK-OV-3 ovarian
  TGI: 43.7 µM
OVCAR-5 ovarian
  TGI: 89 µM
A549 NSCLC
  TGI: 33.3 µM
EKVX NSCLC
  TGI: 72.8 µM
NCI-H23 lung
  TGI: 32.3 µM
SNB-19 CNS
  TGI: 31.8 µM
HL-60(TB) leukemia
  TGI: 29 µM
CAKI-1 renal
  TGI: 47.4 µM
RXF 393 renal
  TGI: 29.5 µM
UACC-257 melanoma
  TGI: 27.5 µM
UO-31 renal
  TGI: 24.2 µM
MDA-N
  TGI: 29.4 µM
SNB-75 CNS
  TGI: 28.4 µM
OVCAR-3 ovarian
  TGI: 29.8 µM
M14 melanoma
  TGI: 26.5 µM
NCI/ADR-RES ovarian
  TGI: 70.4 µM
LOX IMVI melanoma
  TGI: 34.8 µM
ACHN renal
  TGI: 28.4 µM
MOLT-4 leukemia
  TGI: 31.2 µM
HOP-92 NSCLC
  TGI: 29.3 µM
TK-10 renal
  TGI: 29.6 µM
A498 renal
  TGI: 28.7 µM
SF-295 CNS
  TGI: 30.8 µM
SK-MEL-28 melanoma
  TGI: 30.9 µM
NCI-H226 lung
  TGI: 34.5 µM
KM12 colon
  TGI: 43.7 µM
NCI-H460 lung
  TGI: 31.7 µM
K-562 leukemia
  TGI: 29.6 µM
DU-145 prostate
  TGI: 41.5 µM
OVCAR-4 ovarian
  TGI: 53.1 µM
COLO 205 colon
  TGI: 24.8 µM
T-47D breast
  TGI: 91.5 µM
HCT-15 colon
  TGI: 34.4 µM
MDA-MB-435
  TGI: 31.1 µM
UACC-62 melanoma
  TGI: 28.7 µM
HOP-62 NSCLC
  TGI: 34.2 µM
HCT-116 colon
  TGI: 28.9 µM
HCC-2998 colon
  TGI: 25.5 µM
SN12C renal
  TGI: 30.8 µM
SK-MEL-2 melanoma
  TGI: 28.6 µM
BT-549 breast
  TGI: 30.9 µM
NCI-H522 lung
  TGI: 30 µM
SF-268 CNS
  TGI: 29.4 µM
SK-MEL-5 melanoma
  TGI: 24.5 µM
PC-3 prostate
  TGI: 47.6 µM
IGROV1 ovarian
  TGI: 27.5 µM
